This passage reports TGI and GI50 results from PubChem BioAssay (NCI).

Where “and” joins values, the source holds several entries; their conditions need not be identical. Equal entries are not always repeated.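 Exposure lasted 48 hours, with cells grown in 96-well plates and compounds tested at five concentrations. GI50: concentration for 50% inhibition of growth. TGI: total growth inhibition.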

Some test systems named below: A498 renal; COLO 205 colon; HCT-116 colon; HOP-62 NSCLC; NCI-H460 lung; NCI-H522 lung; OVCAR-4 ovarian; SF-268 CNS; SK-MEL-2 melanoma; U251 CNS; UACC-62 melanoma; TK-10 renal; HS 578T breast.
Common to all, as to assay: DTP human tumour cell line panel, 48 h

One may read the TGI as the concentration at which net growth stops. Higher therefore signals lower sensitivity of the cells. As usually defined, the GI50 is the concentration giving 50% growth inhibition. In the case of `CC(=O)Oc1c(OC(C)=O)c(-c2ccc(O)c(O)c2)c(O)c(O)c1-c1ccc(O)cc1`, the TGI in the assay on A498 renal is more than 100 µM; with COLO 205 colon, more than 100 µM; with HCT-116 colon, more than 100 µM; in the assay with HOP-62 NSCLC it was more than 100 µM; with NCI-H460 lung, more than 100 µM; in the assay on NCI-H522 lung, 45.2 µM and 33 µM. Also, the TGI in the assay with OVCAR-4 ovarian is more than 100 µM; in the assay on SF-268 CNS it was more than 100 µM; in the assay on SK-MEL-2 melanoma it was > 100 µM and 92 µM; in the assay on U251 CNS, more than 100 µM; in the assay on UACC-62 melanoma, 45.4 µM and 75.5 µM. Besides, the GI50 in the assay with HCT-116 colon is 36.1 µM; in the assay on NCI-H460 lung it was 69.7 µM; with NCI-H522 lung, 20.1 µM; in the assay on OVCAR-4 ovarian it was 59 µM; with SF-268 CNS it was 80.6 µM; in the assay with SK-MEL-2 melanoma it was 56.5 µM. The GI50 in the assay on UACC-62 melanoma was 21.7 µM.

Turning to `N#Cc1c(-c2ccc(Cl)cc2)c(C#N)c(=O)n(NS(=O)(=O)c2ccccc2)c1-c1ccccc1`, the total growth inhibition concentration (TGI) with A498 renal, in the assay on COLO 205 colon, with HCT-116 colon, in the assay with HOP-62 NSCLC, in the assay on NCI-H460 lung and in the assay on OVCAR-4 ovarian was more than 25 µM throughout. For the same molecule, the TGI in the assay on SK-MEL-2 melanoma, with TK-10 renal, in the assay on U251 CNS and in the assay on UACC-62 melanoma was more than 25 µM throughout.

With `CSC(=NCCN=C(NS(=O)(=O)c1ccc(Cl)cc1)SC)NS(=O)(=O)c1ccc(Cl)cc1`, the TGI in the assay with A498 renal was more than 100 µM; with COLO 205 colon, more than 100 µM; with HCT-116 colon, more than 100 µM; in the assay on HOP-62 NSCLC, 87.8 µM; in the assay on NCI-H460 lung, more than 100 µM; in the assay with OVCAR-4 ovarian it was more than 100 µM. The concentration for total growth inhibition (TGI) with SF-268 CNS was 68.7 µM; with SK-MEL-2 melanoma, more than 100 µM; with TK-10 renal it was more than 100 µM; in the assay on U251 CNS, 42.6 µM; in the assay on UACC-62 melanoma, more than 100 µM.

Take `CN1OC(=O)N(C)C1c1ccccc1` (configuration not stated): the concentration for total growth inhibition (TGI) in the assay on A498 renal, with COLO 205 colon, in the assay with HCT-116 colon, in the assay on HOP-62 NSCLC, with NCI-H460 lung and with NCI-H522 lung was more than 100 µM each time. The concentration for total growth inhibition (TGI) with OVCAR-4 ovarian, in the assay with SF-268 CNS, in the assay on SK-MEL-2 melanoma, in the assay on U251 CNS and in the assay with UACC-62 melanoma was more than 100 µM throughout.

Consider `Cc1ccc(S(=O)(=O)N/N=C2\C=C[C@]3(CC2)C(=O)N(C)c2ccccc23)cc1`, for which the total growth inhibition concentration (TGI) with A498 renal, with COLO 205 colon, with HCT-116 colon, with HOP-62 NSCLC, in the assay with HS 578T breast and in the assay on NCI-H460 lung was more than 100 µM in each case. In addition, the total growth inhibition concentration (TGI) with OVCAR-4 ovarian, in the assay on SF-268 CNS, in the assay on SK-MEL-2 melanoma, with U251 CNS and with UACC-62 melanoma was more than 100 µM each time.

With `Nc1ccn(C2OC(COP(=O)(O)Oc3ccccc3)C(O)C2O)c(=O)n1` (configuration not stated), the TGI in the assay with A498 renal, in the assay on COLO 205 colon, in the assay on HCT-116 colon, in the assay with NCI-H460 lung, in the assay on NCI-H522 lung and in the assay on OVCAR-4 ovarian was more than 100 µM each time. The total growth inhibition concentration (TGI) in the assay on SF-268 CNS, in the assay with SK-MEL-2 melanoma, in the assay with U251 CNS and in the assay on UACC-62 melanoma was more than 100 µM each time.

As to `COc1cc(CC2c3cc(OC)c(OC)cc3CCN2C)c(Oc2cc3c(cc2OC)-c2c(OC)c(OC)c(OC)c4c2C(C3)N(C)CC4)cc1OC` (configuration not stated), the TGI with A498 renal turned out to be 28.8 µM; in the assay with COLO 205 colon, 20.9 µM; in the assay on HCT-116 colon, 24.3 µM; with HOP-62 NSCLC it was 31.3 µM; in the assay with NCI-H460 lung, 32.7 µM; in the assay with NCI-H522 lung it was 24.5 µM. Moreover, the TGI in the assay with OVCAR-4 ovarian worked out at 33.1 µM; in the assay on SF-268 CNS, 32.8 µM; with SK-MEL-2 melanoma, 28.8 µM; with TK-10 renal, 29.5 µM; with U251 CNS, 26 µM; in the assay with UACC-62 melanoma, 29.1 µM.

Take `Cc1cc2c(-c3ccccc3)cc(=O)[nH]c2cc1N`: the TGI in the assay on A498 renal, in the assay with COLO 205 colon, in the assay on HCT-116 colon, in the assay on HOP-62 NSCLC, in the assay with NCI-H460 lung and in the assay on OVCAR-4 ovarian was more than 100 µM throughout. Besides, the TGI in the assay with SK-MEL-2 melanoma, in the assay on U251 CNS and with UACC-62 melanoma was more than 100 µM each time.

Turning to `CCOC(=O)CCC(NC(=O)OCc1ccccc1)C(=O)NC(CCC(=O)OCC)C(=O)NC(CCC(=O)OCC)C(=O)NC(CCC(=O)OCC)C(=O)NC(CCC(=O)OCC)C(=O)OCC` (configuration not stated), the TGI in the assay with COLO 205 colon, with HCT-116 colon, in the assay on HOP-62 NSCLC, with HS 578T breast, with NCI-H460 lung and with NCI-H522 lung was more than 100 µM each time. The TGI with OVCAR-4 ovarian, in the assay with SK-MEL-2 melanoma, in the assay on TK-10 renal, in the assay on U251 CNS and in the assay with UACC-62 melanoma was more than 100 µM each time.

Turning to `COc1nc(=O)n(C2CC(N=[N+]=[N-])C(CO)O2)cc1C` (configuration not stated), the TGI with HCT-116 colon, with HOP-62 NSCLC, in the assay with HS 578T breast, in the assay with NCI-H460 lung, in the assay on NCI-H522 lung and in the assay with OVCAR-4 ovarian was more than 100 µM throughout. Further, the total growth inhibition concentration (TGI) in the assay with SF-268 CNS, in the assay on SK-MEL-2 melanoma, in the assay with TK-10 renal, with U251 CNS and in the assay on UACC-62 melanoma was more than 100 µM in each case.

On to `S=C1C=C(c2ccccc2)Sc2ccccc2N1`, for which the TGI with COLO 205 colon, with HCT-116 colon, with HOP-62 NSCLC, in the assay with HS 578T breast, in the assay with NCI-H460 lung and in the assay with NCI-H522 lung was more than 100 µM throughout. The total growth inhibition concentration (TGI) in the assay with OVCAR-4 ovarian, with SF-268 CNS, with TK-10 renal, in the assay with U251 CNS and with UACC-62 melanoma was more than 100 µM throughout.

Regarding `Nc1ncc(Cc2nc3ccccc3s2)s1`, the TGI in the assay on COLO 205 colon was more than 100 µM; with HCT-116 colon, more than 100 µM; in the assay on HOP-62 NSCLC it was more than 100 µM; in the assay with HS 578T breast it was 96.4 µM; in the assay with NCI-H460 lung it was more than 100 µM; in the assay with NCI-H522 lung, more than 100 µM. The TGI in the assay with OVCAR-4 ovarian, in the assay on SF-268 CNS, with SK-MEL-2 melanoma, in the assay with TK-10 renal, in the assay with U251 CNS and in the assay on UACC-62 melanoma was more than 100 µM in each case.
